{"source": "patent US8815852B2", "about": "“Carbamoyloxy arylalkan arylpiperazine analgesics” (SK Biopharmaceuticals Co., Ltd., priority 2007, dated 2014)", "data": [{"tested_on": "male ICR mouse", "test": "Acetic acid-induced writhing test in mouse", "assay_type": "in vivo", "settings": "Mus musculus, po, 1 h, at 10 po (method: 10 mg/kg oral, 1 hour before acetic acid); read-out: AA Writhing: Suppression ratio of Pain response", "experimental": "(§1) 2. Acetic Acid-Induced Writhing Test in Mouse\n(§2) An acetic acid-induced writhing test is one of models for measuring an analgesic effect of drugs. A test material dissolved in a suitable vehicle was orally administered to a male ICR mouse weighing 30 to 35 g at an amount of 10 mg/kg. After 1 hour of the oral administration, […] of an aqueous 0.8% acetic acid solution was intraperitoneally injected into the male ICR mouse to induce the abdominal pain of the male ICR mouse. Right after the administration of acetic acid, the male ICR mouse was put into an empty cage, and the number of writhing behaviors of the mice was counted for 10 minutes. The term “writhing represents a reflex action in which the mouse overtly extends its abdomen by stretching its hind legs due to the abdominal pain. The analgesic effect of the test material is represented by the ‘suppression ratio of pain response’ {[(Writhing number of Vehicle-administered group−Writhing number of Test material-administered group)/(Writhing number of Vehicle-administered group)]×100%} or 50% of Effective amount (ED50 (median effective dose); an amount of test material that is required to suppress 50% of pain behaviors) of Test material. The ED50 (median effective dose) was determined by calculating the suppression ratio of pain response in at least three doses of test materials and subjecting to the linear regression.", "units": {"inhibition in vivo at 10 mg/kg": "%"}, "values": [{"smiles": "COc1ccc(N2CCN(CCC(OC(N)=O)c3ccc([N+](=O)[O-])cc3)CC2)cc1", "note": "(stereo not drawn) [Example 44, Carbamic acid 3-[4-(4-methoxy-phenyl)-piperazin-1-yl]-1-(4-nitro-phenyl)-propyl ester]", "inhibition in vivo at 10 mg/kg": 64}, {"smiles": "COc1ccc(N2CCN(CCC(OC(N)=O)c3cccc(Cl)c3)CC2)cc1", "note": "(stereo not drawn) [Example 45, Carbamic acid 1-(3-chloro-phenyl)-3-[4-(4-methoxy-phenyl)-piperazin-1-yl]-propyl ester]", "inhibition in vivo at 10 mg/kg": 62}, {"smiles": "COc1ccc(N2CCN(CCC(OC(N)=O)c3ccccc3F)CC2)cc1", "note": "(stereo not drawn) [Example 46, Carbamic acid 1-(2-fluoro-phenyl)-3-[4-(4-methoxy-phenyl)-piperazin-1-yl]-propyl ester]", "inhibition in vivo at 10 mg/kg": 42}, {"smiles": "COc1ccc(C(CCN2CCN(c3ccc(OC)cc3)CC2)OC(N)=O)cc1", "note": "(stereo not drawn) [Example 47, Carbamic acid 1-(4-methoxy-phenyl)-3-[4-(4-methoxy-phenyl)-piperazin-1-yl]-propyl ester]", "inhibition in vivo at 10 mg/kg": 53}, {"smiles": "COc1ccc(N2CCN(CCC(OC(N)=O)c3ccc(C(C)(C)C)cc3)CC2)cc1", "note": "(stereo not drawn) [Example 48]", "inhibition in vivo at 10 mg/kg": 93}, {"smiles": "COc1ccc(N2CCN(CCC(OC(N)=O)c3ccc4ccccc4c3)CC2)cc1", "note": "(stereo not drawn) [Example 49, Carbamic acid 3-[4-(4-methoxy-phenyl)-piperazin-1-yl]-1-naphthalen-2-yl-propyl ester]", "inhibition in vivo at 10 mg/kg": 64}, {"smiles": "COc1ccc(N2CCN(CCC(OC(N)=O)c3ccccc3Cl)CC2)cc1", "note": "(stereo not drawn) [Example 50, Carbamic acid 1-(2-chloro-phenyl)-3-[4-(4-methoxy-phenyl)-piperazin-1-yl]-propyl ester]", "inhibition in vivo at 10 mg/kg": 49}, {"smiles": "COc1ccc(N2CCN(CCC(OC(N)=O)c3ccccc3C(F)(F)F)CC2)cc1", "note": "(stereo not drawn) [Example 51, Carbamic acid 3-[4-(4-methoxy-phenyl)-piperazin-1-yl]-1-(2-trifluoromethyl-phenyl)-propyl ester]", "inhibition in vivo at 10 mg/kg": 95}, {"smiles": "COc1ccc(N2CCN(CCC(OC(N)=O)c3ccc(F)c(F)c3)CC2)cc1", "note": "(stereo not drawn) [Example 52, Carbamic acid 1-(3,4-difluoro-phenyl)-3-[4-(4-methoxy-phenyl)-piperazin-1-yl]-propyl ester]", "inhibition in vivo at 10 mg/kg": 61}, {"smiles": "COc1ccc(N2CCN(CCC(OC(N)=O)c3cccc(F)c3)CC2)cc1", "note": "(stereo not drawn) [Example 53, Carbamic acid 1-(3-fluoro-phenyl)-3-[4-(4-methoxy-phenyl)-piperazin-1-yl]-propyl ester]", "inhibition in vivo at 10 mg/kg": 57}, {"smiles": "COc1ccc(N2CCN(CCC(OC(N)=O)c3cccc(OC)c3)CC2)cc1", "note": "(stereo not drawn) [Example 54, Carbamic acid 1-(3-methoxy-phenyl)-3-[4-(4-methoxy-phenyl)-piperazin-1-yl]-propyl ester]", "inhibition in vivo at 10 mg/kg": 69}, {"smiles": "COc1ccc(N2CCN(CCC(OC(N)=O)c3cccc4ccccc34)CC2)cc1", "note": "(stereo not drawn) [Example 55, Carbamic acid 3-[4-(4-methoxy-phenyl)-piperazin-1-yl]-1-naphthalen-1-yl-propyl ester]", "inhibition in vivo at 10 mg/kg": 16}, {"smiles": "COc1ccc(N2CCN(CCC(OC(N)=O)c3ccc(C)cc3)CC2)cc1", "note": "(stereo not drawn) [Example 56, Carbamic acid 3-[4-(4-methoxy-phenyl)-piperazin-1-yl]-1-p-tolyl-propyl ester]", "inhibition in vivo at 10 mg/kg": 93}, {"smiles": "COc1ccc(N2CCN(CCC(OC(N)=O)c3cccc(C)c3)CC2)cc1", "note": "(stereo not drawn) [Example 57, Carbamic acid 3-[4-(4-methoxy-phenyl)-piperazin-1-yl]-1-m-tolyl-propyl ester]", "inhibition in vivo at 10 mg/kg": 52}, {"smiles": "COc1ccc(N2CCN(CCC(OC(N)=O)c3ccc(Cl)cc3Cl)CC2)cc1", "note": "(stereo not drawn) [Example 58, Carbamic acid 1-(2,4-dichloro-phenyl)-3-[4-(4-methoxy-phenyl)-piperazin-1-yl]-propyl ester]", "inhibition in vivo at 10 mg/kg": 16}, {"smiles": "COc1ccc(N2CCN(CCC(OC(N)=O)c3ccccc3C)CC2)cc1", "note": "(stereo not drawn) [Example 59, Carbamic acid 3-[4-(4-methoxy-phenyl)-piperazin-1-yl]-1-o-tolyl-propyl ester]", "inhibition in vivo at 10 mg/kg": 48}, {"smiles": "COc1ccc(N2CCN(CCC(OC(N)=O)c3ccc(C)cc3C)CC2)cc1", "note": "(stereo not drawn) [Example 60, Carbamic acid 1-(2,4-dimethyl-phenyl)-3-[4-(4-methoxy-phenyl)-piperazin-1-yl]-propyl ester]", "inhibition in vivo at 10 mg/kg": 62}, {"smiles": "COc1ccc(N2CCN(CCC(OC(N)=O)c3ccc(C)c(C)c3)CC2)cc1", "note": "(stereo not drawn) [Example 61, Carbamic acid 1-(3,4-dimethyl-phenyl)-3-[4-(4-methoxy-phenyl)-piperazin-1-yl]-propyl ester]", "inhibition in vivo at 10 mg/kg": 58}, {"smiles": "COc1ccc(N2CCN(CCC(OC(N)=O)c3cc(C)ccc3C)CC2)cc1", "note": "(stereo not drawn) [Example 62, Carbamic acid 1-(2,5-dimethyl-phenyl)-3-[4-(4-methoxy-phenyl)-piperazin-1-yl]-propyl ester]", "inhibition in vivo at 10 mg/kg": 62}, {"smiles": "COc1ccc(N2CCN(CCC(OC(N)=O)c3ccc(Cl)c(C(F)(F)F)c3)CC2)cc1", "note": "(stereo not drawn) [Example 63, Carbamic acid 1-(4-chloro-3-trifluoromethyl-phenyl)-3-[4-(4-methoxy-phenyl)-piperazin-1-yl]-propyl ester]", "inhibition in vivo at 10 mg/kg": 46}, {"smiles": "COc1ccc(N2CCN(CCC(OC(N)=O)c3ccccc3[N+](=O)[O-])CC2)cc1", "note": "(stereo not drawn) [Example 64, Carbamic acid 3-[4-(4-methoxy-phenyl)-piperazin-1-yl]-1-(2-nitro-phenyl)-propyl ester]", "inhibition in vivo at 10 mg/kg": 59}, {"smiles": "COc1ccc(N2CCN(CCC(OC(N)=O)c3cccc([N+](=O)[O-])c3)CC2)cc1", "note": "(stereo not drawn) [Example 65, Carbamic acid 3-[4-(4-methoxy-phenyl)-piperazin-1-yl]-1-(3-nitro-phenyl)-propyl ester]", "inhibition in vivo at 10 mg/kg": 39}, {"smiles": "COc1ccc(N2CCN(CCC(OC(N)=O)c3ccc(C(F)(F)F)cc3)CC2)cc1", "note": "(stereo not drawn) [Example 66, Carbamic acid 3-[4-(4-methoxy-phenyl)-piperazin-1-yl]-1-(4-trifluoromethyl-phenyl)-propyl ester]", "inhibition in vivo at 10 mg/kg": 95}, {"smiles": "COc1ccc(N2CCN(CCC(OC(N)=O)c3ccc4c(c3)OCO4)CC2)cc1", "note": "(stereo not drawn) [Example 67]", "inhibition in vivo at 10 mg/kg": 57}, {"smiles": "COc1ccc(N2CCN(CCC(OC(N)=O)c3cccc(C(F)(F)F)c3)CC2)cc1", "note": "(stereo not drawn) [Example 68, Carbamic acid 3-[4-(4-methoxy-phenyl)-piperazin-1-yl]-1-(3-trifluoromethyl-phenyl)-propyl ester]", "inhibition in vivo at 10 mg/kg": 48}, {"smiles": "COc1ccc(N2CCN(CCC(OC(N)=O)c3ccc(Cl)c(Cl)c3)CC2)cc1", "note": "(stereo not drawn) [Example 70, Carbamic acid 1-(3,4-dichloro-phenyl)-3-[4-(4-methoxy-phenyl)-piperazin-1-yl]-propyl ester]", "inhibition in vivo at 10 mg/kg": 51}, {"smiles": "COc1ccc(N2CCN(CCC(OC(N)=O)c3ccc(Cl)cc3)CC2)cc1", "note": "(stereo not drawn) [Example 71, Carbamic acid 1-(4-chloro-phenyl)-3-[4-(4-methoxy-phenyl)-piperazin-1-yl]-propyl ester]", "inhibition in vivo at 10 mg/kg": 61}, {"smiles": "NC(=O)OC(CCN1CCN(c2ccc(O)cc2)CC1)c1ccc(Cl)c(C(F)(F)F)c1", "note": "(stereo not drawn) [Example 72, Carbamic acid 1-(4-chloro-3-trifluoromethyl-phenyl)-3-[4-(4-hydroxy-phenyl)-piperazin-1-yl]-propyl ester]", "inhibition in vivo at 10 mg/kg": 53}, {"smiles": "NC(=O)OC(CCN1CCN(c2ccc(O)cc2)CC1)c1ccc(Cl)c(Cl)c1", "note": "(stereo not drawn) [Example 73, Carbamic acid 1-(3,4-dichloro-phenyl)-3-[4-(4-hydroxy-phenyl)-piperazin-1-yl]-propyl ester]", "inhibition in vivo at 10 mg/kg": 55}, {"smiles": "CCOc1ccccc1N1CCN(CCC(OC(N)=O)c2ccc(F)cc2)CC1", "note": "(stereo not drawn) [Example 74, Carbamic acid 3-[4-(2-ethoxy-phenyl)-piperazin-1-yl]-1-(4-fluoro-phenyl)-propyl ester]", "inhibition in vivo at 10 mg/kg": 44}, {"smiles": "COc1ccc(Cl)cc1N1CCN(CCC(OC(N)=O)c2ccc(F)cc2)CC1", "note": "(stereo not drawn) [Example 75, Carbamic acid 3-[4-(5-chloro-2-methoxy-phenyl)-piperazin-1-yl]-1-(4-fluoro-phenyl)-propyl ester]", "inhibition in vivo at 10 mg/kg": 14}, {"smiles": "NC(=O)OC(CCN1CCN(c2ccc(Cl)c(Cl)c2)CC1)c1ccc(F)cc1", "note": "(stereo not drawn) [Example 76, Carbamic acid 3-[4-(3,4-dichloro-phenyl)-piperazin-1-yl]-1-(4-fluoro-phenyl)-propyl ester]", "inhibition in vivo at 10 mg/kg": 50}, {"smiles": "COc1ccc(N2CCN(CC3CCc4ccccc4C3OC(N)=O)CC2)cc1", "note": "(stereo not drawn) [Example 82, Carbamic acid 2-[4-(4-methoxy-phenyl)-piperazin-1-ylmethyl]-1,2,3,4-tetrahydro-naphthalen-1-yl ester]", "inhibition in vivo at 10 mg/kg": 55}, {"smiles": "NC(=O)OC(CCN1CCN(c2ccc(OCc3ccccc3)cc2)CC1)c1ccccc1", "note": "(stereo not drawn) [Example 85, Carbamic acid 3-[4-(4-benzyloxyphenyl)-piperazin-1-yl]-1-phenyl-propyl ester]", "inhibition in vivo at 10 mg/kg": 58}]}, {"tested_on": "male ICR mouse", "test": "Acetic acid-induced writhing test in mouse", "assay_type": "in vivo", "settings": "Mus musculus; po; unit not given (method doses in mg/kg); read-out: AA Writhing: ED50", "experimental": "as §1, §2", "units": {"ED50": "mg/kg"}, "values": [{"smiles": "COc1ccc(N2CCN(CCC(OC(N)=O)c3ccc(F)cc3)CC2)cc1", "note": "(stereo not drawn) [Example 77, Carbamic acid 1-(4-fluoro-phenyl)-3-[4-(4-methoxy-phenyl)-piperazin-1-yl]-propyl ester]", "ED50": 12.4}]}, {"tested_on": "male ICR mouse", "test": "Acetic acid-induced writhing test in mouse", "assay_type": "in vivo", "settings": "at 10 po (method: 10 mg/kg oral, 1 hour before acetic acid)", "experimental": "as §1, §2", "units": {"AA Writhing: Suppression ratio of Pain response": "%"}, "values": [{"smiles": "COc1ccc(N2CCN(CCC(OC(N)=O)c3ccccc3F)CC2)cc1", "note": "(stereo not drawn) [Example 69, Carbamic acid 1-(2-fluoro-phenyl)-3-[4-(4-methoxy-phenyl)-piperazin-1-yl]-propyl ester]", "AA Writhing: Suppression ratio of Pain response": 57}]}]}
